In the supplement of paper PMC10307832:

Legend:
Test in all cases: relative viability (nuclei count vs DMSO), 5 days (fraction); higher = more cells survive
[1] = tested on: ABC-1
How it was run: (§1)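 Relative viability divides the nuclei count in treated wells by that in vehicle wells. Lung cancer cell lines were seeded in 1536-well plates, dosed by pin tool the next day, and fixed and stained after 5 days in one step with final 0.05% Triton X-100, 1% formaldehyde and 1 ug/ml Hoechst. Dosing was a single drug or a fixed anchor-drug dose plus five library-drug doses (not always all listed) in √10 steps, and values are medians of duplicate plates imaged at 4×.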

[2] = tested on: CAL-12T
How it was run: as §1

[3] = tested on: COR-L 105
How it was run: as §1

[4] = tested on: ChaGo-K-1
How it was run: as §1

[5] = tested on: EMC-BAC-2
How it was run: as §1

[6] = tested on: EPLC-272H
How it was run: as §1

[7] = tested on: HCC-15
How it was run: as §1

[8] = tested on: HCC-78
How it was run: as §1

[9] = tested on: HOP-62
How it was run: as §1

[10] = tested on: LXF-289
How it was run: as §1

[11] = tested on: NCI-H1666
How it was run: as §1

[12] = tested on: NCI-H1755
How it was run: as §1

[13] = tested on: NCI-H1915
How it was run: as §1

[14] = tested on: NCI-H1975
How it was run: as §1

[15] = tested on: NCI-H1993
How it was run: as §1

[16] = tested on: NCI-H2023
How it was run: as §1

[17] = tested on: NCI-H2085
How it was run: as §1

[18] = tested on: NCI-H2126
How it was run: as §1

[19] = tested on: NCI-H3122
How it was run: as §1

[20] = tested on: NCI-H322M
How it was run: as §1

[21] = tested on: NCI-H358
How it was run: as §1

[22] = tested on: NCI-H441
How it was run: as §1

[23] = tested on: NCI-H522
How it was run: as §1

[24] = tested on: UMC-11
How it was run: as §1

With `CC(C)Oc1cc(Nc2nc(N[C@@H](C)c3ccc(F)cn3)ncc2Cl)n[nH]1` [AZ23] + Cc1nc(Nc2ncc(C(=O)Nc3c(C)cccc3Cl)s2)cc(N2CCN(CCO)CC2)n1 [Dasatinib] (partner 0.075 µM) the relative viability ([1]; first compound 0.01 µM) was 0.583, the relative viability ([1]; first compound 0.03162 µM) was 0.766 and the relative viability ([1]; first compound 0.3162 µM) was 0.546. It also gave a relative viability ([2]; first compound 0.03162 µM) of 0.363, a relative viability ([2]; first compound 0.3162 µM) of 0.221 and a relative viability ([3]; first compound 0.01 µM) of 0.339. The relative viability ([3]; first compound 0.03162 µM) was 0.374, the relative viability ([3]; first compound 0.3162 µM) was 0.341 and the relative viability ([4]; first compound 0.01 µM) was 0.687. The relative viability ([4]; first compound 0.03162 µM) was 0.627, the relative viability ([4]; first compound 0.3162 µM) was 0.566 and the relative viability ([5]; first compound 0.01 µM) was 0.308. For the same molecule, the relative viability ([5]; first compound 0.03162 µM) was 0.381, the relative viability ([5]; first compound 0.3162 µM) was 0.364 and the relative viability ([6]; first compound 0.01 µM) was 0.38. The relative viability ([6]; first compound 0.03162 µM) was 0.305, the relative viability ([6]; first compound 0.3162 µM) was 0.273 and the relative viability ([7]; first compound 0.01 µM) was 0.642. For the same molecule, the relative viability ([7]; first compound 0.03162 µM) was 0.712, the relative viability ([7]; first compound 0.3162 µM) was 0.575 and the relative viability ([8]; first compound 0.01 µM) was 0.323. It also gave a relative viability ([8]; first compound 0.03162 µM) of 0.381, a relative viability ([8]; first compound 0.3162 µM) of 0.328 and a relative viability ([9]; first compound 0.01 µM) of 0.702. For the same molecule, the relative viability ([9]; first compound 0.03162 µM) was 0.684, the relative viability ([9]; first compound 0.3162 µM) was 0.631 and the relative viability ([10]; first compound 0.01 µM) was 0.205. It also gave a relative viability ([10]; first compound 0.03162 µM) of 0.275, a relative viability ([10]; first compound 0.3162 µM) of 0.189 and a relative viability ([11]; first compound 0.01 µM) of 0.891. The relative viability ([11]; first compound 0.03162 µM) was 0.927, the relative viability ([11]; first compound 0.3162 µM) was 0.809 and the relative viability ([12]; first compound 0.01 µM) was 0.456. It also gave a relative viability ([12]; first compound 0.03162 µM) of 0.488, a relative viability ([12]; first compound 0.3162 µM) of 0.357 and a relative viability ([13]; first compound 0.01 µM) of 0.33. The relative viability ([13]; first compound 0.03162 µM) was 0.342, the relative viability ([13]; first compound 0.3162 µM) was 0.29 and the relative viability ([14]; first compound 0.01 µM) was 0.453. It also gave a relative viability ([14]; first compound 0.03162 µM) of 0.405, a relative viability ([14]; first compound 0.3162 µM) of 0.326 and a relative viability ([15]; first compound 0.01 µM) of 0.501. It also gave a relative viability ([15]; first compound 0.03162 µM) of 0.613, a relative viability ([15]; first compound 0.3162 µM) of 0.522 and a relative viability ([16]; first compound 0.03162 µM) of 0.627. The relative viability ([16]; first compound 0.3162 µM) was 0.57, the relative viability ([17]; first compound 0.01 µM) was 0.232 and the relative viability ([17]; first compound 0.03162 µM) was 0.214. The relative viability ([17]; first compound 0.3162 µM) was 0.199, the relative viability ([18]; first compound 0.01 µM) was 0.573 and the relative viability ([18]; first compound 0.03162 µM) was 0.715. For the same molecule, the relative viability ([18]; first compound 0.3162 µM) was 0.56, the relative viability ([19]; first compound 0.01 µM) was 0.946 and the relative viability ([19]; first compound 0.03162 µM) was 0.831. It also gave a relative viability ([19]; first compound 0.3162 µM) of 0.856, a relative viability ([20]; first compound 0.03162 µM) of 0.255 and a relative viability ([20]; first compound 0.3162 µM) of 0.256. The relative viability ([21]; first compound 0.01 µM) was 0.144, the relative viability ([21]; first compound 0.03162 µM) was 0.161 and the relative viability ([21]; first compound 0.3162 µM) was 0.123. For the same molecule, the relative viability ([22]; first compound 0.01 µM) was 0.683, the relative viability ([22]; first compound 0.03162 µM) was 0.745 and the relative viability ([22]; first compound 0.3162 µM) was 0.699. It also gave a relative viability ([23]; first compound 0.01 µM) of 0.716, a relative viability ([23]; first compound 0.03162 µM) of 0.933 and a relative viability ([23]; first compound 0.3162 µM) of 1.02. It also gave a relative viability ([24]; first compound 0.01 µM) of 0.593, a relative viability ([24]; first compound 0.03162 µM) of 0.504 and a relative viability ([24]; first compound 0.3162 µM) of 0.481.

With `CC(C)Oc1cc(Nc2nc(N[C@@H](C)c3ccc(F)cn3)ncc2Cl)n[nH]1` [AZ23] + N=C(N)NC(=N)NCCc1ccccc1 [Phenformin] (partner 250 µM) the relative viability ([1]; first compound 0.01 µM) was 0.211, the relative viability ([1]; first compound 0.03162 µM) was 0.221 and the relative viability ([1]; first compound 0.3162 µM) was 0.236. For the same molecule, the relative viability ([2]; first compound 0.03162 µM) was 0.591, the relative viability ([2]; first compound 0.3162 µM) was 0.524 and the relative viability ([3]; first compound 0.01 µM) was 0.456. The relative viability ([3]; first compound 0.03162 µM) was 0.577, the relative viability ([3]; first compound 0.3162 µM) was 0.508 and the relative viability ([4]; first compound 0.01 µM) was 0.497. The relative viability ([4]; first compound 0.03162 µM) was 0.458, the relative viability ([4]; first compound 0.3162 µM) was 0.529 and the relative viability ([5]; first compound 0.01 µM) was 0.545. It also gave a relative viability ([5]; first compound 0.03162 µM) of 0.603, a relative viability ([5]; first compound 0.3162 µM) of 0.526 and a relative viability ([6]; first compound 0.01 µM) of 0.33. The relative viability ([6]; first compound 0.03162 µM) was 0.302, the relative viability ([6]; first compound 0.3162 µM) was 0.378 and the relative viability ([7]; first compound 0.01 µM) was 0.555. For the same molecule, the relative viability ([7]; first compound 0.03162 µM) was 0.537, the relative viability ([7]; first compound 0.3162 µM) was 0.494 and the relative viability ([8]; first compound 0.01 µM) was 0.692. For the same molecule, the relative viability ([8]; first compound 0.03162 µM) was 0.656, the relative viability ([8]; first compound 0.3162 µM) was 0.583 and the relative viability ([9]; first compound 0.01 µM) was 0.684. The relative viability ([9]; first compound 0.03162 µM) was 0.792, the relative viability ([9]; first compound 0.3162 µM) was 0.79 and the relative viability ([10]; first compound 0.01 µM) was 0.591. For the same molecule, the relative viability ([10]; first compound 0.03162 µM) was 0.512, the relative viability ([10]; first compound 0.3162 µM) was 0.533 and the relative viability ([11]; first compound 0.01 µM) was 0.566. For the same molecule, the relative viability ([11]; first compound 0.03162 µM) was 0.802, the relative viability ([11]; first compound 0.3162 µM) was 0.538 and the relative viability ([12]; first compound 0.01 µM) was 0.689. For the same molecule, the relative viability ([12]; first compound 0.03162 µM) was 0.651, the relative viability ([12]; first compound 0.3162 µM) was 0.673 and the relative viability ([13]; first compound 0.01 µM) was 0.4. For the same molecule, the relative viability ([13]; first compound 0.03162 µM) was 0.373, the relative viability ([13]; first compound 0.3162 µM) was 0.372 and the relative viability ([14]; first compound 0.01 µM) was 0.43. It also gave a relative viability ([14]; first compound 0.03162 µM) of 0.416, a relative viability ([14]; first compound 0.3162 µM) of 0.397 and a relative viability ([15]; first compound 0.01 µM) of 0.501. The relative viability ([15]; first compound 0.03162 µM) was 0.475, the relative viability ([15]; first compound 0.3162 µM) was 0.441 and the relative viability ([16]; first compound 0.03162 µM) was 0.506. For the same molecule, the relative viability ([16]; first compound 0.3162 µM) was 0.481, the relative viability ([17]; first compound 0.01 µM) was 0.727 and the relative viability ([17]; first compound 0.03162 µM) was 0.705. The relative viability ([17]; first compound 0.3162 µM) was 0.779, the relative viability ([18]; first compound 0.01 µM) was 0.51 and the relative viability ([18]; first compound 0.03162 µM) was 0.539. The relative viability ([18]; first compound 0.3162 µM) was 0.532, the relative viability ([19]; first compound 0.01 µM) was 0.387 and the relative viability ([19]; first compound 0.03162 µM) was 0.439. It also gave a relative viability ([19]; first compound 0.3162 µM) of 0.373, a relative viability ([20]; first compound 0.03162 µM) of 0.903 and a relative viability ([20]; first compound 0.3162 µM) of 0.785. For the same molecule, the relative viability ([21]; first compound 0.01 µM) was 0.369, the relative viability ([21]; first compound 0.03162 µM) was 0.347 and the relative viability ([21]; first compound 0.3162 µM) was 0.348. For the same molecule, the relative viability ([22]; first compound 0.01 µM) was 0.865, the relative viability ([22]; first compound 0.03162 µM) was 0.841 and the relative viability ([22]; first compound 0.3162 µM) was 0.906. The relative viability ([23]; first compound 0.01 µM) was 0.711, the relative viability ([23]; first compound 0.03162 µM) was 0.662 and the relative viability ([23]; first compound 0.3162 µM) was 0.656. The relative viability ([24]; first compound 0.01 µM) was 0.341, the relative viability ([24]; first compound 0.03162 µM) was 0.305 and the relative viability ([24]; first compound 0.3162 µM) was 0.324.
